Reference: patent publication US10131652B2, “Pyrimidinyloxy benzene derivatives as herbicides” (E. I. DU PONT DE NEMOURS AND COMPANY, priority 2014, dated 2018)
Like-named read-outs stand apart in the source and are kept apart here.

Experiments:
Assay in all cases: Test F pre-/postemergence plant response
Assay type in all cases: in vivo
corn (Zea mays) = settings: Zea mays, scale 0 to 100
Procedure, shortened: (§1)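 Seeds were sown in silt loam soil and sprayed preemergence; separately, plants at the 1- to 4-leaf stage (2 to 18 cm) received postemergence sprays. Test chemicals were in a non-phytotoxic solvent mixture with surfactant. After 14 to 21 days in a greenhouse, injury was visually rated 0 (no effect) to 100 (complete control) against untreated controls.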

soybean (Glycine max) = settings: Glycine max, scale 0 to 100, read-out: Plant response rating, Soybean
Procedure, shortened: as §1

[1] = test system: morningglory (Ipomoea coccinea); settings: Ipomoea, pre-emergence, scale 0 to 100, read-out: Plant response rating, Morningglory
Procedure, shortened: as §1

[2] = test system: large (Lg) crabgrass (Digitaria sanguinalis); settings: Digitaria sanguinalis, pre-emergence, scale 0 to 100, read-out: Plant response rating, Crabgrass, Large
Procedure, shortened: as §1

[3] = test system: barnyardgrass (Echinochloa crus-galli); settings: Echinochloa crus-galli, scale 0 to 100, read-out: Plant response rating, Barnyardgrass
Procedure, shortened: as §1

[4] = test system: surinam grass (Brachiaria decumbens); settings: Urochloa decumbens, pre-emergence, scale 0 to 100, read-out: Plant response rating, Surinam Grass
Procedure, shortened: as §1

[5] = test system: green foxtail (Setaria viridis); settings: Setaria viridis, pre-emergence, scale 0 to 100, read-out: Plant response rating, Foxtail, Green
Procedure, shortened: as §1

[6] = test system: fall panicum (Panicum dichotomiflorum); settings: Panicum dichotomiflorum, scale 0 to 100, read-out: Plant response rating, Panicum, Fall
Procedure, shortened: as §1

[7] = test system: arrowleaf sida (Sida rhombifolia); settings: Sida rhombifolia, scale 0 to 100, read-out: Plant response rating, Arrowleaf Sida
Procedure, shortened: as §1

[8] = test system: sandbur (southern sandbur, Cenchrus echinatus); settings: Cenchrus echinatus, scale 0 to 100, read-out: Plant response rating, Sandbur
Procedure, shortened: as §1

[9] = test system: giant foxtail (Setaria faberii); settings: Setaria faberi, pre-emergence, scale 0 to 100, read-out: Plant response rating, Foxtail, Giant
Procedure, shortened: as §1

[10] = test system: ragweed (common ragweed, Ambrosia elatior); settings: Ambrosia artemisiifolia, pre-emergence, scale 0 to 100, read-out: Plant response rating, Ragweed
Procedure, shortened: as §1

[11] = test system: waterhemp (common waterhemp, Amaranthus rudis); settings: Amaranthus tuberculatus, scale 0 to 100, read-out: Plant response rating, Waterhemp
Procedure, shortened: as §1

[12] = test system: dayflower (Virginia (VA) dayflower, Commelina virginica); settings: Commelina virginica, scale 0 to 100, read-out: Plant response rating, Dayflower, VA
Procedure, shortened: as §1

[13] = test system: johnsongrass (Sorghum halepense); settings: Sorghum halepense, pre-emergence, scale 0 to 100, read-out: Plant response rating, Johnsongrass
Procedure, shortened: as §1

[14] = test system: palmer pigweed (Amaranthus palmeri); settings: Amaranthus palmeri, scale 0 to 100, read-out: Plant response rating, Pigweed, Palmer
Procedure, shortened: as §1

[15] = post-emergence, 8 g ai/ha Postemergence
[16] = post-emergence, 16 g ai/ha Postemergence
[17] = post-emergence, 31 g ai/ha Postemergence
[18] = post-emergence, 62 g ai/ha Postemergence
[19] = post-emergence, 125 g ai/ha Postemergence
[20] = pre-emergence, 8 g ai/ha Preemergence
[21] = pre-emergence, 16 g ai/ha Preemergence
[22] = pre-emergence, 31 g ai/ha Preemergence
[23] = pre-emergence, 62 g ai/ha Preemergence
[24] = pre-emergence, 125 g ai/ha Preemergence

SMILES: FC(F)(F)c1cc(-c2ccccc2Oc2ncc(Cl)cn2)no1 [Compound 200, 5-chloro-2-[2-[5-(trifluoromethyl)-3-isoxazolyl]phenoxy]pyrimidine]
- Corn plant response rating (crop injury, 0 = no effect, 100 = complete kill) at 8 g/ha (corn (Zea mays); [15]): 0%
- Corn plant response rating (crop injury, 0 = no effect, 100 = complete kill) at 16 g/ha (corn (Zea mays); [16]): 0%
- Corn plant response rating (crop injury, 0 = no effect, 100 = complete kill) at 31 g/ha (corn (Zea mays); [17]): 10%
- Corn plant response rating (crop injury, 0 = no effect, 100 = complete kill) at 62 g/ha (corn (Zea mays); [18]): 20%
- Corn plant response rating (crop injury, 0 = no effect, 100 = complete kill) at 125 g/ha (corn (Zea mays); [19]): 25%
- Corn plant response rating (crop injury, 0 = no effect, 100 = complete kill) at 8 g/ha (corn (Zea mays); [20]): 0%
- Corn plant response rating (crop injury, 0 = no effect, 100 = complete kill) at 16 g/ha (corn (Zea mays); [21]): 0%
- Corn plant response rating (crop injury, 0 = no effect, 100 = complete kill) at 31 g/ha (corn (Zea mays); [22]): 0%
- Corn plant response rating (crop injury, 0 = no effect, 100 = complete kill) at 62 g/ha (corn (Zea mays); [23]): 0%
- Corn plant response rating (crop injury, 0 = no effect, 100 = complete kill) at 125 g/ha (corn (Zea mays); [24]): 0%
- plant injury at 8 g/ha (soybean (Glycine max); [15]): 15%
- plant injury at 16 g/ha (soybean (Glycine max); [16]): 20%
- plant injury at 31 g/ha (soybean (Glycine max); [17]): 40%
- plant injury at 62 g/ha (soybean (Glycine max); [18]): 65%
- plant injury at 125 g/ha (soybean (Glycine max); [19]): 90%
- plant injury at 8 g/ha (soybean (Glycine max); [20]): 0%
- plant injury at 16 g/ha (soybean (Glycine max); [21]): 0%
- plant injury at 31 g/ha (soybean (Glycine max); [22]): 20%
- plant injury at 125 g/ha (soybean (Glycine max); [24]): 50%
- plant injury at 62 g/ha (soybean (Glycine max); pre-emergence, Preemergence): 30%
- pest or weed control at 8 g/ha ([1]; 8 g ai/ha Preemergence): 0%
- pest or weed control at 16 g/ha ([1]; 16 g ai/ha Preemergence): 0%
- pest or weed control at 31 g/ha ([1]; 31 g ai/ha Preemergence): 0%
- pest or weed control at 125 g/ha ([1]; 125 g ai/ha Preemergence): 15%
- pest or weed control at 62 g/ha ([1]; Preemergence): 0%
- pest or weed control at 8 g/ha ([2]; 8 g ai/ha Preemergence): 0%
- pest or weed control at 16 g/ha ([2]; 16 g ai/ha Preemergence): 50%
- pest or weed control at 31 g/ha ([2]; 31 g ai/ha Preemergence): 85%
- pest or weed control at 62 g/ha ([2]; 62 g ai/ha Preemergence): 95%
- pest or weed control at 125 g/ha ([2]; 125 g ai/ha Preemergence): 100%
- pest or weed control at 8 g/ha [3, 15]: 0%
- pest or weed control at 16 g/ha [3, 16]: 0%
- pest or weed control at 31 g/ha [3, 17]: 0%
- pest or weed control at 62 g/ha [3, 18]: 15%
- pest or weed control at 125 g/ha [3, 19]: 25%
- pest or weed control at 8 g/ha [3, 20]: 0%
- pest or weed control at 16 g/ha [3, 21]: 0%
- pest or weed control at 31 g/ha [3, 22]: 0%
- pest or weed control at 62 g/ha [3, 23]: 30%
- pest or weed control at 125 g/ha [3, 24]: 60%
- pest or weed control at 8 g/ha ([4]; 8 g ai/ha Preemergence): 0%
- pest or weed control at 16 g/ha ([4]; 16 g ai/ha Preemergence): 0%
- pest or weed control at 31 g/ha ([4]; 31 g ai/ha Preemergence): 0%
- pest or weed control at 125 g/ha ([4]; 125 g ai/ha Preemergence): 35%
- pest or weed control at 62 g/ha ([4]; Preemergence): 10%
- pest or weed control at 8 g/ha ([5]; 8 g ai/ha Preemergence): 0%
- pest or weed control at 16 g/ha ([5]; 16 g ai/ha, Preemergence): 10%
- pest or weed control at 31 g/ha ([5]; 31 g ai/ha, Preemergence): 98%
- pest or weed control at 125 g/ha ([5]; 125 g ai/ha, Preemergence): 100%
- pest or weed control at 62 g/ha ([5]; Preemergence): 100%
- pest or weed control at 8 g/ha [6, 15]: 5%
- pest or weed control at 16 g/ha [6, 16]: 5%
- pest or weed control at 31 g/ha [6, 17]: 5%
- pest or weed control at 62 g/ha [6, 18]: 5%
- pest or weed control at 125 g/ha [6, 19]: 15%
- pest or weed control at 8 g/ha [6, 20]: 0%
- pest or weed control at 16 g/ha [6, 21]: 70%
- pest or weed control at 31 g/ha [6, 22]: 35%
- pest or weed control at 125 g/ha [6, 24]: 100%
- pest or weed control at 62 g/ha ([6]; pre-emergence, Preemergence): 98%
- pest or weed control at 8 g/ha [7, 15]: 65%
- pest or weed control at 16 g/ha [7, 16]: 75%
- pest or weed control at 31 g/ha [7, 17]: 85%
- pest or weed control at 62 g/ha [7, 18]: 95%
- pest or weed control at 125 g/ha [7, 19]: 95%
- pest or weed control at 8 g/ha [7, 20]: 0%
- pest or weed control at 16 g/ha [7, 21]: 65%
- pest or weed control at 31 g/ha [7, 22]: 100%
- pest or weed control at 62 g/ha [7, 23]: 100%
- pest or weed control at 125 g/ha [7, 24]: 100%
- pest or weed control at 8 g/ha [8, 15]: 0%
- pest or weed control at 16 g/ha [8, 16]: 0%
- pest or weed control at 31 g/ha [8, 17]: 0%
- pest or weed control at 62 g/ha [8, 18]: 0%
- pest or weed control at 125 g/ha [8, 19]: 5%
- pest or weed control at 8 g/ha [8, 20]: 0%
- pest or weed control at 16 g/ha [8, 21]: 5%
- pest or weed control at 31 g/ha [8, 22]: 5%
- pest or weed control at 125 g/ha [8, 24]: 75%
- pest or weed control at 62 g/ha ([8]; pre-emergence, Preemergence): 40%
- pest or weed control at 8 g/ha ([9]; 8 g ai/ha Preemergence): 0%
- pest or weed control at 16 g/ha ([9]; 16 g ai/ha Preemergence): 35%
- pest or weed control at 31 g/ha ([9]; 31 g ai/ha Preemergence): 65%
- pest or weed control at 62 g/ha ([9]; 62 g ai/ha Preemergence): 100%
- pest or weed control at 125 g/ha ([9]; 125 g ai/ha Preemergence): 100%
- pest or weed control at 8 g/ha ([10]; 8 g ai/ha Preemergence): 0%
- pest or weed control at 16 g/ha ([10]; 16 g ai/ha Preemergence): 0%
- pest or weed control at 31 g/ha ([10]; 31 g ai/ha Preemergence): 10%
- pest or weed control at 125 g/ha ([10]; 125 g ai/ha Preemergence): 40%
- pest or weed control at 62 g/ha ([10]; Preemergence): 35%
- pest or weed control at 8 g/ha [11, 15]: 75%
- pest or weed control at 16 g/ha [11, 16]: 80%
- pest or weed control at 31 g/ha [11, 17]: 95%
- pest or weed control at 62 g/ha [11, 18]: 98%
- pest or weed control at 125 g/ha [11, 19]: 100%
- pest or weed control at 8 g/ha [11, 20]: 70%
- pest or weed control at 16 g/ha [11, 21]: 98%
- pest or weed control at 31 g/ha [11, 22]: 100%
- pest or weed control at 125 g/ha [11, 24]: 100%
- pest or weed control at 62 g/ha ([11]; pre-emergence, Preemergence): 100%
- pest or weed control at 8 g/ha [12, 15]: 0%
- pest or weed control at 16 g/ha [12, 16]: 0%
- pest or weed control at 31 g/ha [12, 17]: 25%
- pest or weed control at 62 g/ha [12, 18]: 15%
- pest or weed control at 125 g/ha [12, 19]: 35%
- pest or weed control at 8 g/ha [12, 20]: 0%
- pest or weed control at 16 g/ha [12, 21]: 15%
- pest or weed control at 31 g/ha [12, 22]: 50%
- pest or weed control at 62 g/ha [12, 23]: 70%
- pest or weed control at 125 g/ha [12, 24]: 90%
- pest or weed control at 8 g/ha ([13]; 8 g ai/ha Preemergence): 0%
- pest or weed control at 16 g/ha ([13]; 16 g ai/ha Preemergence): 0%
- pest or weed control at 31 g/ha ([13]; 31 g ai/ha Preemergence): 5%
- pest or weed control at 125 g/ha ([13]; 125 g ai/ha Preemergence): 90%
- pest or weed control at 62 g/ha ([13]; Preemergence): 35%
- pest or weed control at 8 g/ha [14, 15]: 85%
- pest or weed control at 16 g/ha [14, 16]: 95%
- pest or weed control at 31 g/ha [14, 17]: 98%
- pest or weed control at 62 g/ha [14, 18]: 100%
- pest or weed control at 125 g/ha [14, 19]: 100%
- pest or weed control at 8 g/ha [14, 20]: 0%
- pest or weed control at 16 g/ha [14, 21]: 85%
- pest or weed control at 31 g/ha [14, 22]: 100%
- pest or weed control at 125 g/ha [14, 24]: 100%
- pest or weed control at 62 g/ha ([14]; pre-emergence, Preemergence): 100%
